The nature of series [1]: Cytotoxicity against African green monkey Vero cells after 72 hrs by MTT assay. Type of series: cell-based. To be noted: chlorocebus sabaeus.
Series [2] has as its system Trypanosoma cruzi. As to the kind of experiment: Antitrypanosomal activity against epimastigote stage of Trypanosoma cruzi Y assessed as reduction in parasitic count after 96 hrs by Neubauer hemocytometry. The class given is functional, organism-based.
For series [3], the system named is Trypanosoma cruzi. As to the kind of experiment: Antitrypanosomal activity against trypomastigote stage of Trypanosoma cruzi Y assessed as reduction in parasitic viability after 24 hrs by Pizzi-Brener method. The class given is functional, organism-based.
For a further series, the system named is Leishmania amazonensis. As to the kind of experiment: Antileishmanial activity against promastigote stage of Leishmania amazonensis MHOM/BR/75/Josefa assessed as reduction in parasitic count after 72 hrs by Neubauer hemocytometry. The class given is functional, organism-based.
The next series relates to Leishmania donovani. Put plainly: Antileishmanial activity against promastigote stage of Leishmania donovani after 2 hrs by [3H]thymidine incorporation assay. Type of series: functional, organism-based.

Broadly, the CC50 is the concentration that lowers cell viability or growth by half. By IC50 is commonly meant the concentration that inhibits the measured activity by half. By EC50 is commonly meant the concentration that produces a half-maximal response.

In turn, `COc1ccc(/C=C(\C)C(C)=O)cc1` showed a CC50 at 72 h in series [1] of 240 µM. Further, the IC50 in the series with Trypanosoma cruzi [2] and in the series with Leishmania amazonensis was over 100 µM each time. Moreover, in the series on Trypanosoma cruzi [3], the EC50 was over 100 µM.
Turning to `CC/C(=C\c1ccc(Cl)cc1)C(=O)/C=C/c1ccc([N+](=O)[O-])cc1`, the 50% cytotoxic concentration (CC50) at 72 h in series [1] amounted to 36 µM. Moreover, the IC50 was determined as 2.5 µM in the series with Trypanosoma cruzi [2] and 0.5 µM in the series with Leishmania amazonensis. Besides, the concentration giving a half-maximal response (EC50) in the series on Trypanosoma cruzi [3] is 17.9 µM.
On the same counts, the results for `COc1ccc(/C=C(\C)C(=O)/C=C/c2ccccc2Cl)cc1` are 74.3 µM, 17.8 µM, 19.5 µM and 21.8 µM.
Taken in the same sequence, the figures for `CC/C(=C\c1ccc(Cl)cc1)C(=O)/C=C/c1ccccc1Br` were 24.4 µM, 1.8 µM, 1.3 µM and 20 µM.
Taken in the same sequence, the figures for `CC/C(=C\c1ccc(Cl)cc1)C(=O)/C=C/c1ccc(Cl)cc1` were 28.3 µM, 10.2 µM, 2.4 µM and 25.6 µM.
The compound `COc1ccc(/C=C(\C)C(=O)/C=C/c2cc(OC)c(OC)c(OC)c2)cc1` registered a CC50 at 72 h in series [1] of 21.4 µM. The IC50 was 6.1 µM in the series with Trypanosoma cruzi [2] and 3.7 µM with Leishmania amazonensis. In addition, in the series on Trypanosoma cruzi [3], the EC50 worked out at 69.2 µM.
On the same counts, the results for `COc1ccc(/C=C(\C)C(=O)/C=C/c2ccccc2Br)cc1` are 71 µM, 21.7 µM, 21.7 µM and 25 µM.
On the same counts, the results for `COc1ccc(/C=C(\C)C(=O)/C=C/c2ccc(Br)cc2)cc1` are 31.2 µM, 20 µM, 17.3 µM and 21.1 µM.
As to `COc1ccc(/C=C(\C)C(=O)/C=C/c2ccccc2F)cc1`, in series [1], the CC50 at 72 h is 81.2 µM. The 50% inhibitory concentration (IC50) with Trypanosoma cruzi [2] came to 15.2 µM; in the series on Leishmania amazonensis, 32.2 µM. The EC50 in the series with Trypanosoma cruzi [3] stood at 67.6 µM.
Taken in the same sequence, the figures for `COc1ccc(/C=C(\C)C(=O)/C=C/c2ccc(/C=C/C(=O)/C(C)=C/c3ccc(OC)cc3)cc2)cc1` were 460 µM, over 100 µM, 76.3 µM and over 100 µM.
Taken in the same sequence, the figures for `COc1ccc(/C=C(\C)C(=O)/C=C/c2c(Cl)cccc2Cl)cc1` were 65.7 µM, 19.6 µM, 8.2 µM and 27.9 µM.
`COc1ccc(/C=C(\C)C(=O)/C=C/c2cccc(Br)c2)cc1` displayed a CC50 at 72 h in series [1] of 152 µM. Also, the IC50 in the series with Trypanosoma cruzi [2] and in the series on Leishmania amazonensis was 17.2 µM in each case. Also, the EC50 in the series with Trypanosoma cruzi [3] was determined as 20.3 µM.
In turn, `COc1ccc(/C=C(\C)C(=O)/C=C/c2ccc(Cl)cc2)cc1` registered a CC50 at 72 h in series [1] of 87 µM. The figures for the IC50 in the series with Trypanosoma cruzi [2] and in the series with Leishmania amazonensis were 18.9 µM and 13.8 µM, respectively. Further, in the series with Trypanosoma cruzi [3], the EC50 came to 23 µM.
On the same counts, the results for `COc1ccc(/C=C(\C)C(=O)/C=C/c2ccc(F)cc2)cc1` are 68.1 µM, 15.1 µM, 19.3 µM and 19.7 µM.
On the same counts, the results for `CC/C(=C\c1ccc(Cl)cc1)C(=O)/C=C/c1ccc(C=O)cc1` are 46.9 µM, 65.2 µM, 17.4 µM and 74.2 µM.
`COc1ccc(/C=C(\C)C(=O)/C=C/c2ccc(OC)c(OC)c2)cc1` had a CC50 at 72 h in series [1] of 74.2 µM. Further, the IC50 was found to be 9.7 µM with Trypanosoma cruzi [2] and 9.8 µM in the series with Leishmania amazonensis. Moreover, the EC50 in the series with Trypanosoma cruzi [3] is 66.7 µM.
With `COc1cc(/C=C/C(=O)c2ccc(O)c(O)c2)c(OC)c(OC)c1O`, the IC50 in the series with Leishmania donovani was 3.7 µM.
In series [1], `COc1ccc(/C=C(\C)C(=O)/C=C/c2cccc(Cl)c2Cl)cc1` came in with a CC50 at 72 h of 119 µM. Also, the IC50 in the series with Trypanosoma cruzi [2] came to 16.8 µM; in the series with Leishmania amazonensis, 13.8 µM. The EC50 with Trypanosoma cruzi [3] stood at 14.8 µM.
In turn, `CC/C(=C\c1ccc(Cl)cc1)C(=O)/C=C/c1ccc(Br)cc1` had a CC50 at 72 h in series [1] of 29.4 µM. Moreover, the IC50 in the series with Trypanosoma cruzi [2] worked out at 5.4 µM; with Leishmania amazonensis it was 1.4 µM. Moreover, the EC50 in the series on Trypanosoma cruzi [3] stood at 19.5 µM.
On the same counts, the results for `CC/C(=C\c1ccc(Cl)cc1)C(=O)/C=C/c1cccc(OC)c1OC` are 21.8 µM, 5.5 µM, 2 µM and 19.1 µM.
On the same counts, the results for `CC/C(=C\c1ccc(Cl)cc1)C(C)=O` are 136 µM, over 100 µM, 58 µM and over 100 µM.
On the same counts, the results for `CC/C(=C\c1ccc(Cl)cc1)C(=O)/C=C/c1ccc2c(c1)OCO2` are 27.1 µM, 2.8 µM, 2.9 µM and 7.6 µM.
`O=C(Cn1ccnc1[N+](=O)[O-])NCc1ccccc1` [BENZNIDAZOLE]: the IC50 in the series with Trypanosoma cruzi [2] is 6.5 µM. Moreover, in the series on Trypanosoma cruzi [3], the EC50 came to 34.5 µM.

Values taken from ChEMBL document CHEMBL3817790 (Medchemcomm, 2016).
